According to the supplement of paper PMC10307832:

What was measured:
Experiment in all cases: relative viability (nuclei count vs DMSO), 5 days (fraction); higher = more cells survive
PAC-1 + Tozasertib = compound: C=CCc1cccc(/C=N/NC(=O)CN2CCN(Cc3ccccc3)CC2)c1O [PAC-1] + Cc1cc(Nc2cc(N3CCN(C)CC3)nc(Sc3ccc(NC(=O)C4CC4)cc3)n2)n[nH]1 [Tozasertib] (partner 0.1 µM)
Method in brief: (§1)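 Dosing by pin tool came one day after lung cancer cell lines were seeded in 1536-well plates, using either one drug or a fixed anchor-drug dose plus five library-drug doses (not always all listed) in √10 steps. After 5 days, nuclei were counted on 4× images. Relative viability is treated-well nuclei count divided by vehicle-well nuclei count, and values are medians of duplicate plates.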

Ibrutinib + Phenformin = compound: C=CC(=O)N1CCC[C@@H](n2nc(-c3ccc(Oc4ccccc4)cc3)c3c(N)ncnc32)C1 [Ibrutinib] + N=C(N)NC(=N)NCCc1ccccc1 [Phenformin] (partner 250 µM)
Method in brief: as §1

Ibrutinib + Foretinib = compound: C=CC(=O)N1CCC[C@@H](n2nc(-c3ccc(Oc4ccccc4)cc3)c3c(N)ncnc32)C1 [Ibrutinib] + COc1cc2c(Oc3ccc(NC(=O)C4(C(=O)Nc5ccc(F)cc5)CC4)cc3F)ccnc2cc1OCCCN1CCOCC1 [Foretinib] (partner 0.25 µM)
Method in brief: as §1

BMX-IN-1 + Phenformin = compound: C=CC(=O)Nc1cc(-n2c(=O)ccc3cnc4ccc(-c5ccc(NS(C)(=O)=O)cc5)cc4c32)ccc1C [BMX-IN-1] + N=C(N)NC(=N)NCCc1ccccc1 [Phenformin] (partner 250 µM)
Method in brief: as §1

Cell Line	relative viability (PAC-1 + Tozasertib; first compound 0.02 µM)	relative viability (PAC-1 + Tozasertib; first compound 0.06325 µM)	relative viability (PAC-1 + Tozasertib; first compound 0.2 µM)	relative viability (PAC-1 + Tozasertib; first compound 2 µM)	relative viability (Ibrutinib + Phenformin; first compound 0.01581 µM)	relative viability (Ibrutinib + Phenformin; first compound 0.05 µM)	relative viability (Ibrutinib + Phenformin; first compound 0.1581 µM)	relative viability (Ibrutinib + Phenformin; first compound 0.5 µM)	relative viability (Ibrutinib + Foretinib; first compound 0.01581 µM)	relative viability (Ibrutinib + Foretinib; first compound 0.05 µM)	relative viability (Ibrutinib + Foretinib; first compound 0.1581 µM)	relative viability (Ibrutinib + Foretinib; first compound 0.5 µM)	relative viability (BMX-IN-1 + Phenformin; first compound 0.02 µM)	relative viability (BMX-IN-1 + Phenformin; first compound 0.2 µM)	relative viability (BMX-IN-1 + Phenformin; first compound 0.6325 µM)	relative viability (BMX-IN-1 + Phenformin; first compound 2 µM)	relative viability (Ibrutinib + Phenformin; first compound 0.005 µM)	relative viability (Ibrutinib + Foretinib; first compound 0.005 µM)
NCI-H596	0.903	0.885	0.857	1.01	0.635	0.704	0.607	0.635	0.808	0.803	0.793	0.567	0.891	0.981	0.732	0.83	–	–
NCI-H647	0.336	0.403	0.256	0.242	0.467	0.411	0.592	0.605	1.13	1.23	1.25	1.17	0.537	0.547	0.599	0.661	–	–
NCI-H650	0.73	0.791	0.749	0.721	0.456	0.372	0.492	0.493	0.94	1.09	1.25	1.17	0.46	0.505	0.452	0.455	0.457	1.07
NCI-H661	0.364	0.332	0.348	0.331	0.281	0.252	0.287	0.271	0.839	0.842	0.984	0.616	0.242	0.259	0.282	0.255	0.26	1.06
NCI-H727	0.679	0.585	0.589	0.602	0.612	0.546	–	0.401	0.785	0.914	–	0.695	0.532	0.546	0.584	0.392	–	0.911
NCI-H838	0.283	0.239	0.262	0.279	0.491	0.581	0.519	0.537	0.985	1.07	1.01	1.02	0.564	0.739	0.744	0.572	0.492	0.929
NCI-H1355	0.536	0.568	0.569	0.564	0.463	0.485	0.469	0.427	0.88	0.848	0.981	0.793	0.397	0.477	0.453	0.481	0.419	0.863
NCI-H1395	0.629	0.7	0.749	0.646	0.404	0.468	0.442	0.405	0.922	1.02	0.982	0.907	0.445	0.456	0.444	0.47	0.281	0.913
NCI-H1437	0.395	0.391	0.378	0.378	0.3	0.318	0.317	0.314	1.19	1.26	1.28	1.27	0.281	0.342	0.334	0.326	0.352	1.33
